Holding throughout (assay type): cell-based
The target in one test is ABCB4-I541F (Homo sapiens, UniProt P21439, I541F). In words: Canalicular localisation of ABCB4-I541F by indirect immunofluorescence in HepG2 cells. Conditions: 16 hours. More on the design: The subcloning of wild type (WT) ABCB4, isoform A (NM_000443.3), into pcDNA3 vector has been described; expressed in transfected cells; host or cells: HepG2 (immunofluorescence). On the procedure:
For indirect immunofluorescence, HepG2 cells were grown on glass coverslips and after transfection and treatments, they were fixed and permeabilized during 1 min at −20° C. in ice-cold methanol. Then ABCB4 and ABCC2 were immunolabelled using the mouse monoclonal P3II-26 (IgG2b) and M2I-4 (IgG1) antibodies (Enzo Life Sciences), respectively. […] For each experiment, all images were acquired with constant settings (acquisition time and correction of signal intensities).

The next test deals with ABCB4-I490T (Homo sapiens, UniProt P21439, I490T). The experiment in a line: Canalicular localisation of ABCB4-I490T by indirect immunofluorescence in HepG2 cells. The arrangement: The subcloning of wild type (WT) ABCB4, isoform A (NM_000443.3), into pcDNA3 vector has been described; expressed in transfected cells; host or cells: HepG2 (immunofluorescence). The following applies: 25 μM. On the procedure:
(§1) For indirect immunofluorescence, HepG2 cells were grown on glass coverslips and after transfection and treatments, they were fixed and permeabilized during 1 min at −20° C. in ice-cold methanol. Then ABCB4 and ABCC2 were immunolabelled using the mouse monoclonal P3II-26 (IgG2b) and M2I-4 (IgG1) antibodies (Enzo Life Sciences), respectively. AlexaFluor® 555 and AlexaFluor® 488 conjugated isotype-specific secondary antibodies (Thermo Fisher Scientific) and Hoechst 33342 (Thermo Fisher Scientific) were used to label ABCB4, ABCC2 and nuclei, respectively. Images were acquired using an IX83 inverted fluorescence microscope from Olympus (Rungis, France), equipped with a UPLSAPO 60XS2 silicone immersion objective and a Hamamatsu ORCA Flash4.0 digital CMOS camera, and analysed using Olympus CellSens Dimension Desktop version 1.16 and Adobe Photoshop version 8.0.1. For each experiment, all images were acquired with constant settings (acquisition time and correction of signal intensities).

Test [1] has as its target T1, ABCB4-L556R (Homo sapiens, UniProt P21439, L556R). The experiment in a line: ABCB4-mediated phosphatidylcholine secretion, HEK cells expressing ABCB4-L556R. More on the design: The subcloning of wild type (WT) ABCB4, isoform A (NM_000443.3), into pcDNA3 vector has been described; expressed in transfected cells; host or cells: HEK-293 (immunoblot, PC secretion). The following applies: 25 μM. The method, then:
Cyclosporin A (CsA) was from Santa Cruz Biotechnologies (Dallas, Tex.). […] Each compound was solubilized in dimethylsulfoxide (DMSO) as 1000× concentrated stock solutions in order to treat cells with 5 μM to 100 μM final concentrations, using DMSO as control vehicle at the same dilution (0.1% DMSO for all conditions). The cells were treated 24 hours post-transfection with these drugs during 16 hours, except for the viability assays for which cells were treated during three days. After drug treatment, cells were used for immunoanalyses, cell viability assays or PC secretion assays.
HEK cells were seeded in 0.01% poly-L-lysine (Sigma) pre-coated 6-well plates of 10 cm^2 area per well (1.3×10^6 cells per well). After transient transfection of the empty vector (control), plasmids encoding ABCB4-WT or its variants, cells were incubated during 24 hours at 37° C. in serum-free medium supplemented with 0.5 mM sodium taurocholate (Sigma) and 0.02% fatty acid-free bovine serum albumin (Sigma). Then, the secreted PC was quantified from the collected media using a fluoro-enzymatic assay previously described (12). Each condition was analysed in triplicate, after background subtraction, and results were normalized to the expression levels of ABCB4 determined by immunoblots of the corresponding cell lysates.

For test [2], the target named is T1, ABCB4-L556R. In words: Canalicular localisation of ABCB4-L556R by indirect immunofluorescence in HepG2 cells. The arrangement: The subcloning of wild type (WT) ABCB4, isoform A (NM_000443.3), into pcDNA3 vector has been described; expressed in transfected cells; host or cells: HepG2 (immunofluorescence). Conditions: 25 μM. On the procedure:
as §1

T1 sequence (P21439 1-1279 isoform P21439-2 L556R): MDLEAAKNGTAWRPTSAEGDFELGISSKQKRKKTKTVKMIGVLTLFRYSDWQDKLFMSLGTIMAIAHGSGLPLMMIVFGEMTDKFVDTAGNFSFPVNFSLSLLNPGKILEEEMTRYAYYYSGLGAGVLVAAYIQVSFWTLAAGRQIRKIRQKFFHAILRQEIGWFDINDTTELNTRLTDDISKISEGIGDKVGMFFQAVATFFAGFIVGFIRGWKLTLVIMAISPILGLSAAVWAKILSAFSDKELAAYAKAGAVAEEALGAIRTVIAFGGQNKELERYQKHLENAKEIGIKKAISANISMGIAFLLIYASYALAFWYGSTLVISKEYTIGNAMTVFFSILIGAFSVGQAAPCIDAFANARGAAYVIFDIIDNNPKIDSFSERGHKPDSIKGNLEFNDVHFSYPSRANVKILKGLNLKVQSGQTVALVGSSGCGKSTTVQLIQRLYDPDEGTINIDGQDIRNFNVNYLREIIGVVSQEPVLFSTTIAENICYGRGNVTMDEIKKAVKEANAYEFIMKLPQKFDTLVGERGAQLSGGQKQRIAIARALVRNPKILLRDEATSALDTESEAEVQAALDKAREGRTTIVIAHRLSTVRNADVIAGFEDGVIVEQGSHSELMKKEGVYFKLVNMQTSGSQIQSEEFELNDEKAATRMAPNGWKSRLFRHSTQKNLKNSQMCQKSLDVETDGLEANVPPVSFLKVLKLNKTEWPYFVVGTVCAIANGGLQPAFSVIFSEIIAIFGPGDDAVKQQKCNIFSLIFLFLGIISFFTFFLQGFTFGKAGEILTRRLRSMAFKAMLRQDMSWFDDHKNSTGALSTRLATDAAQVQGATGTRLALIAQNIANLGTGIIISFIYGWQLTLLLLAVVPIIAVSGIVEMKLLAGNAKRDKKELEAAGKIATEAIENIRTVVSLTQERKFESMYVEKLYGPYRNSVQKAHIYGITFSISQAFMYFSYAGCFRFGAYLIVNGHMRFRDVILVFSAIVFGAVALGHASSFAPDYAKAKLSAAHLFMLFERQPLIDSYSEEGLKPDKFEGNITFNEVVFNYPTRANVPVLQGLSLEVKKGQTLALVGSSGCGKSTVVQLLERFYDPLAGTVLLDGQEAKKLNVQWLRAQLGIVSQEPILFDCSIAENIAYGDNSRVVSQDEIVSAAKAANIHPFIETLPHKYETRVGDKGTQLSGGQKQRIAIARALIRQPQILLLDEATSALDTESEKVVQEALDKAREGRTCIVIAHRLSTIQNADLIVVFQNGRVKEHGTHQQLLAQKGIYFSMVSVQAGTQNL
Chain of ABCB4-I541F (P21439 1-1279 isoform P21439-2 I541F): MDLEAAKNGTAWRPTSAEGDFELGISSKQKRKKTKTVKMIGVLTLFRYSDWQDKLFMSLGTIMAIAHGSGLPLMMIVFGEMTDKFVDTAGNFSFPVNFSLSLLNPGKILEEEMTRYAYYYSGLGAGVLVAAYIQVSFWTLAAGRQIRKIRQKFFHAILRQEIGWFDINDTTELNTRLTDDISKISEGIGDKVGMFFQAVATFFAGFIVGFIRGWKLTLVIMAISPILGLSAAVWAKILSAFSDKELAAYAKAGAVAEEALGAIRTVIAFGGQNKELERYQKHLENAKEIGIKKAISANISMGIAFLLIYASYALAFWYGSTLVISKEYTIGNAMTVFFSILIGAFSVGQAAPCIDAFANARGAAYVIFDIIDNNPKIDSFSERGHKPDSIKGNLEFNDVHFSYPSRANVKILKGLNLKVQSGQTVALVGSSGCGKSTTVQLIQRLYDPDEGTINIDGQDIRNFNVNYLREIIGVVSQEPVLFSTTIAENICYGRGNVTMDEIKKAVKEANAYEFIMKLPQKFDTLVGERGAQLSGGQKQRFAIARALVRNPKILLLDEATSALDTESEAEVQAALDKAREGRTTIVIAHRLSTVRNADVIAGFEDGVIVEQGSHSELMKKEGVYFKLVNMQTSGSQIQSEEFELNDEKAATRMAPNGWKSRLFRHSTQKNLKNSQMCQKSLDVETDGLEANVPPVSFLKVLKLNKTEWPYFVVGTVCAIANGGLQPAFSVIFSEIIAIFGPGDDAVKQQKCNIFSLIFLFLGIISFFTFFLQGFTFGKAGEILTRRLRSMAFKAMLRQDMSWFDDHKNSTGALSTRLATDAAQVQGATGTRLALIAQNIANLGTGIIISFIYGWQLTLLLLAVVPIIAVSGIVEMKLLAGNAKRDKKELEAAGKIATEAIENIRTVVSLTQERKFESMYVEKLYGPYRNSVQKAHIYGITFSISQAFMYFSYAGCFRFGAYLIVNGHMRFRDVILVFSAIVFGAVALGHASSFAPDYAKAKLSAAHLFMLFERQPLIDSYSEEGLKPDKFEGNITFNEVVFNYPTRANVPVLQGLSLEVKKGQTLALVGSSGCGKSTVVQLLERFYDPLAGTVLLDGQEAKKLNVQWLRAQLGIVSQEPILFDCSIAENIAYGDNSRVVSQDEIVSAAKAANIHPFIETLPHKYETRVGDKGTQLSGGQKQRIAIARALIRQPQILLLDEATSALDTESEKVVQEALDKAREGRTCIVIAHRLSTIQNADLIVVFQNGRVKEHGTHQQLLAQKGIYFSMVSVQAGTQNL
Chain of ABCB4-I490T (P21439 1-1279 isoform P21439-2 I490T): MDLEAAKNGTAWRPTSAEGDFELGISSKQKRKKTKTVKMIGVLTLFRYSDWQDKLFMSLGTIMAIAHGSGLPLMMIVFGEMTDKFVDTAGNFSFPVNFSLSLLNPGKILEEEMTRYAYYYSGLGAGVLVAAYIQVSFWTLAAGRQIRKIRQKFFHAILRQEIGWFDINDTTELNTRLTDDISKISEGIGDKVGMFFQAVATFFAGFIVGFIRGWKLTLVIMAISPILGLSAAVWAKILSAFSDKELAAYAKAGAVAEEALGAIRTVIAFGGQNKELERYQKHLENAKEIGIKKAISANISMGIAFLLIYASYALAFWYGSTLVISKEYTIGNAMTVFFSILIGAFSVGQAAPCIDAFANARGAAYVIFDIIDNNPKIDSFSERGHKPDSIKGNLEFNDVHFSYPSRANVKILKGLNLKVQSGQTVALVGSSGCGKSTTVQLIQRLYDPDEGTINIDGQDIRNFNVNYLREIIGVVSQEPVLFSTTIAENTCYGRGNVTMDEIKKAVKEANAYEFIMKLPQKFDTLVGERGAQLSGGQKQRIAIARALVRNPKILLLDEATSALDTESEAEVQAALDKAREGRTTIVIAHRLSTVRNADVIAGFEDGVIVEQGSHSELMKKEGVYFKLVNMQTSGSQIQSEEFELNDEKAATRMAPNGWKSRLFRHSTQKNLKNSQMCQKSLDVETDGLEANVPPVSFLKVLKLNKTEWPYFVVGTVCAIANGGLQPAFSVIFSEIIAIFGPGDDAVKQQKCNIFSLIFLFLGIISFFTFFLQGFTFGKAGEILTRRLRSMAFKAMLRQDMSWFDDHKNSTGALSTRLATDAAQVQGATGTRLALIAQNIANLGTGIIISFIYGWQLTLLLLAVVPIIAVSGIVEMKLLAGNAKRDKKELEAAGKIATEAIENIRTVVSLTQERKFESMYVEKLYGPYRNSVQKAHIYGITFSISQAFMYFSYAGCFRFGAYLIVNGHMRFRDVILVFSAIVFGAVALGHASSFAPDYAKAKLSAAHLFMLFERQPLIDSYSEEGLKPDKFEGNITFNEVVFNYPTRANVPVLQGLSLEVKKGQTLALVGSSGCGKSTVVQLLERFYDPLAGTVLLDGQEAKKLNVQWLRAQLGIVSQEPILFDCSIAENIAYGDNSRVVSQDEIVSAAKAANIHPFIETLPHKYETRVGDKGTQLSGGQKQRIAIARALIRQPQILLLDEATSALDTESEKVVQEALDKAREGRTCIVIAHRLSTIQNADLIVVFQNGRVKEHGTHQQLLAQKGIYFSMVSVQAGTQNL

On to `CC[C@@H](Nc1nc(NCc2cccc(Cl)c2)c2ncn(C3CCCC3)c2n1)C(=O)O` [MRT2-237], for which the “relocalisation of ABCB4-I541F at bile canaliculi” value (shortened to “relocalisation of ABCB4-I541F”) on ABCB4-I541F (25 μM) and at ABCB4-I541F (100 μM) was “partial relocalisation of ABCB4-I541F at bile canaliculi” throughout. Further, the “relocalisation of ABCB4-I490T at bile canaliculi” value (“relocalisation of ABCB4-I490T” for short) on ABCB4-I490T is reported as “partially relocalised at bile canaliculi”. In addition, the “PC secretion residual activity of ABCB4-L556R” value (“PC secretion residual activity” below) on ABCB4-L556R [1] is given as “significant increase of the residual activity”. Besides, the “relocalisation of ABCB4-L556R at bile canaliculi” value (“relocalisation of ABCB4-L556R” below) on ABCB4-L556R [2] is on record as “partially relocalised at bile canaliculi”.
Consider `CC[C@@H](Nc1nc(NCc2cccc(F)c2)c2ncn(C3CCCC3)c2n1)C(=O)O` [MRT2-235], for which the “relocalisation of ABCB4-I541F” value at ABCB4-I541F (25 μM) and at ABCB4-I541F (100 μM) was “partial relocalisation of ABCB4-I541F at bile canaliculi” throughout. Also, on ABCB4-I490T, the “relocalisation of ABCB4-I490T” value is “partially relocalised at bile canaliculi”. For the same compound, the “PC secretion residual activity” value on ABCB4-L556R [1] is on record as “significant increase of the residual activity”. The “relocalisation of ABCB4-L556R” value at ABCB4-L556R [2] is given as “partially relocalised at bile canaliculi”.
For `CC[C@@H](Nc1nc(NCc2ccc(Cl)c(F)c2)c2ncn(C3CCCC3)c2n1)C(=O)O` [MRT2-243], the “relocalisation of ABCB4-I541F” value at ABCB4-I541F (25 μM) and at ABCB4-I541F (100 μM) was “partial relocalisation of ABCB4-I541F at bile canaliculi” in each case. Besides, at ABCB4-I490T, the “relocalisation of ABCB4-I490T” value is “partially relocalised at bile canaliculi”. Also, the “PC secretion residual activity” value on ABCB4-L556R [1] was “significant increase of the residual activity”. On ABCB4-L556R [2], the “relocalisation of ABCB4-L556R” value is recorded as “partially relocalised at bile canaliculi”.

For the origin of these results see patent publication US20220160716A1 (SORBONNE UNIVERSITE, priority 2019, published 2022).
